These results are taken from US7470518B2 (priority 2002, dated 2008).

The subject of one experiment is PC-12 cells. Nature of the experiment: Whole-cell patch clamp current response of PC-12 cells to 1 mM acetylcholine (re-sensitization and scanning experiments). To be noted: decrease of mean whole-cell current. Format: cell-based. An excerpt: (§1) The patch clamp electrode solution contained 100-mM KCl, 2-mM MgCl2, 1-mM CaCl2, 11-mM EGTA, and 10-mM HEPES; pH was adjusted to 7.2 with KOH.
(§2) In these applications, as discussed above, both the flow rate of the fluids exiting the microchannels and the scan rate of the patch clamped cell are important. […] The width of each channel is 100 μm, the thickness is 50 μm, and the interchannel spacing is 25 μm. The procedure used for fabricating the microchannels and for patch clamping are identical to that described in Example 2 (see above). The patch clamped cell used was a PC-12 cell, which was placed between 10 to 20 micrometers away from the outlets of the microchannels. Channels 1, 3, 5 and 7 were filled with PBS buffer, while channels 2, 4 and 6 were filled with acetylcholine. The flow rate of the fluid streams was 6.8 mm/s.
In general terms: The patch-clamp technique gives a direct electrical read-out from membranes.

The next experiment deals with T1, GABAA receptors (UniProt P28472+P62813).
T1 construct: expressed in transfected cells; host or cells: WSS-1 cells
Kind of experiment: Whole-cell patch clamp antagonist dose-response, bicuculline loaded together with GABA, microfluidic scanning. It is filed as cell-based. To be noted: for IC50: with 100 μM GABA. The protocol: Electrophysiology experiments were performed using a commercially available microfluidic device for patch-clamp (Dynaflow 16, Cellectricon AB, Göteborg Sweden). The device has 16 channels of dimensions 50×57 μm (w×h) separated by 22 μm thick walls at the point of exit into the open volume. The volume of the 16 sample reservoirs is 80 μl and the dimensions of the open volume are 30×35 mm. Prior to experiments the device was loaded with different solutions using a micropipette. A 2 mm thick polycarbonate lid was attached over the sample reservoirs using double adhesive tape (3M, Stockholm, Sweden) to create a closed system. The lid was connected to a syringe with PE tubing and a syringe pump (CMA/100, microinjection pump, Carnegie Medicine, Cambridge, UK) was used to compress the air enclosed by the lid to initiate a well defined pressure driven flow in the channels.
Adherent WSS-1 cells were cultivated in Petri dishes for 4-8 days in (DMEM/F12) medium supplemented with antibiotics and antimycotin (0.2%), fetal calf serum (10%), and L-glutamine. Before the experiments, cells were washed and detached in a HEPES-saline buffer (HBS) containing (in mM): 10 HEPES, 140 NaCl, 5 KCl, 1 CaCl2, 1 MgCl2, and 10 D-glucose (pH 7.4). All chemicals used in the cell cultures were from Sigma-Aldrich (Sigma-Aldrich Sweden AB, Stockholm, Sweden).
Patch clamp experiments were carried out in the whole-cell configuration (holding potential −60 mV, sampling frequency 5 kHz filter frequency 1 KHz). The cell bath solution (HBS) contained 10-mM HEPES, 140 -mM NaCl, 5-mM KCl, 1-mM CaCl2, 1-mM MgCl2, 10-mM D-glucose (pH 7.4). The patch clamp electrode solution contained 100-mM KCl, 2-mM MgCl2, 1-mM CaCl2, 11-mM EGTA, and 10-mM HEPES; pH was adjusted to 7.2 with KOH. The experiments were performed at room temperature (18-22° C.).
The competitive antagonist bicuculline was used at the concentrations of 0.01, 0.1, 1, 5, 10, 100 μM. […] As in the experiments with agonist, every second channel was filled with buffer solution for cleansing, and a resting time in buffer of at least three minutes was used before a return scan was made. Dose-response curves were obtained with texp of 100 ms and 3 s. […] FIGS. 34a and b show the results of a patch-clamp experiment. […] These sample channels were interdigitized with buffer channels in every other channel, and the exposure time were set to either 100 ms or 3 s.

The test system of the next experiment is PC-12 cell.
Excerpt: as §1, §2
The channel structure and experimental setup used in Example 3 can be used to carry out dose-response measurements, in which the concentrations of the ligands in each of the ligand streams differ by predetermined amounts. […] In this 7-channel structure, channels 1, 3, 5 and 7 were filled with PBS buffer, whereas channels 2, 4, and 6 were filled with 1 μM, 12 μM, and 200 μM nicotine, respectively. The flow rate used was 3.24 mm/s and the cell-scanning speed was 250 μm/s. The patch-clamped cell was placed between 10 to 20 μm away from the outlet of the microchannel.

T1 sequence (P62813 28-455): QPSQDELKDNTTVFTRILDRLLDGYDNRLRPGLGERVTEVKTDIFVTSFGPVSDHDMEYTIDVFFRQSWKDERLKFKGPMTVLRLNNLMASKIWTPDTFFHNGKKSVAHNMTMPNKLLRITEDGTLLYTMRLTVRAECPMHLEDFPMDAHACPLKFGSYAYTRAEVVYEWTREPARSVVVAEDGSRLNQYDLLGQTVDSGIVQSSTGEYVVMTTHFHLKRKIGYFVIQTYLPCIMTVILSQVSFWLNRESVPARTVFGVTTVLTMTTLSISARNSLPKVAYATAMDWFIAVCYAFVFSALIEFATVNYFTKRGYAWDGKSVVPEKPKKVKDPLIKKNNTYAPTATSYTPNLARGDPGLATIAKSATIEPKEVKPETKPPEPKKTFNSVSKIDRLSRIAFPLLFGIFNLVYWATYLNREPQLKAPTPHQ
T1 sequence (P28472 26-473): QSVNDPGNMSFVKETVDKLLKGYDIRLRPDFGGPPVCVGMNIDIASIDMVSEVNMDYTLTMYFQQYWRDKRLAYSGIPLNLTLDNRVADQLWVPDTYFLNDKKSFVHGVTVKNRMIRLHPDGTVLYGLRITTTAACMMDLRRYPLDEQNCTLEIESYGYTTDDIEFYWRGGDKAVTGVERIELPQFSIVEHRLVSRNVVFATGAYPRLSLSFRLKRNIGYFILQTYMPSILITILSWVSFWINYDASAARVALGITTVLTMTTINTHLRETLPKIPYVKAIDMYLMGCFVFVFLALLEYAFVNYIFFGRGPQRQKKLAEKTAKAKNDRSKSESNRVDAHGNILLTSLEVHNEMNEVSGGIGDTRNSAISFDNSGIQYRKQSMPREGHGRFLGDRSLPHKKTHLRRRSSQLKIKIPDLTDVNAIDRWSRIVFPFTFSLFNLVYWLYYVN
T1 sequence (P18508 39-466 partner): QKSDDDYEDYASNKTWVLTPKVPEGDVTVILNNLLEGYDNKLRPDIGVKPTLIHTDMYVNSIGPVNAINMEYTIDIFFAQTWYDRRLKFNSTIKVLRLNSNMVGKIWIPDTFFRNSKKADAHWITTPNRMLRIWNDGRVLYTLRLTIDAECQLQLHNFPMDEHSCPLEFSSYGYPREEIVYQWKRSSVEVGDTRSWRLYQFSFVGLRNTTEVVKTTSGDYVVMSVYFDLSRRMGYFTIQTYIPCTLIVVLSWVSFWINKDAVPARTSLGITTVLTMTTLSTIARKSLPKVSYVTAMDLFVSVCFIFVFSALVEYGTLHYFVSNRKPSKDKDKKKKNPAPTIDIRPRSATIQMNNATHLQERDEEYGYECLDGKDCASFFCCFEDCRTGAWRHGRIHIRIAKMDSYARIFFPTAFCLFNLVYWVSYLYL

With `CC(=O)OCC[N+](C)(C)C` [acetylcholine], the “exposure time to the agonist after which de-sensitization of the current response is observed” value in the experiment with PC-12 cells is reported as greater than 5 s.
At GABAA receptors, `CN1CCc2cc3c(cc2[C@H]1[C@@H]1OC(=O)c2c1ccc1c2OCO1)OCO3` [bicuculline] displayed an IC20 of roughly 1 µM. Besides, the half-inhibitory concentration (IC50) worked out at 8.46 ± 1.4 µM on GABAA receptors (IC50, ascending order, texp=3 s); 5.17 ± 0.4 µM against GABAA receptors (IC50, ascending order, texp=100 ms); 1.84 ± 0.4 µM against GABAA receptors (IC50, descending order, texp=3 s); 3.56 ± 0.9 µM on GABAA receptors (IC50, descending order, texp=100 ms).
Turning to `CN1CCCC1c1cccnc1` (centres unmarked) [nicotine], the whole-cell current response entry in the experiment with PC-12 cell (1 μM nicotine) is “barely discernible”. The whole-cell current peak result in the experiment on PC-12 cell (12 μM nicotine) is listed as “detected with good signal-to-noise ratio”.

The IC20 is the concentration needed for an effect of 20%. The IC50 is the concentration at which inhibition is half-maximal.
